Data from patent US9701664B2, “Fused 1,4-dihydrodioxin derivatives as inhibitors of heat shock transcription factor 1” (Cancer Research Technology Limited, priority 2013, dated 2017).

System: HSP72 in U2OS cells
Experiment: Cell-based ELISA (Cellisa) assay, U2OS cells: inhibition of 17-AAG-induced HSP72
Settings: U2OS cells (Examples 1-168)
Procedure: U2OS cells (5-8×10^4 cells/mL) or SK-OV-3 cells (5-8×10^4 cells/mL) were seeded into 96-well plates and incubated at 37° C. for 48 h. Compounds were then added at a range of concentrations and incubated for 1 h before addition of 17-AAG (250 nM). Cells were then incubated for 18 h. The medium was removed washed 2× with PBS and cells were then fixed with fixing solution (4% paraformaldehyde, 0.3% TritonX-100 in PBS) for 30 min at 4° C. The plates were then washed 2× with PBS before blocking with 5% milk for 30 min at 37° C. After washing the plates 4× with 0.1% Tween-20/deionised water, HSP72 antibody (SPA-810, Enzo Life) was added for 1.5 h at 37° C. Following 4× washes, the plates were incubated with europium-labelled anti-mouse antibody (0.6 ug/ml) in Delfia assay buffer (Perkin Elmer) for 1 h at 37° C. After washing the plates, Delfia enhancement solution was added, shaken for 10 min before reading in the Envision plate reader (Perkin-Elmer) with excitation at 340 nm and emission at 615 nm. The plates were washed again before protein determination using the bicinchoninic acid assay (BCA assay, Pierce Biotechnology). The europium counts were normalised for the amount of protein in each well. The 50% inhibitory concentration value of the compound was then calculated.

Compound: Cc1ccc(NC(=O)c2ccc3c(c2)OCCO3)cc1NC(=O)c1ccc2c(c1)CCC(C)N2C (stereo not drawn) [Example 159, N-(5-(2,3-dihydrobenzo[b][1,4]dioxine-6-carboxamido)-2-methylphenyl)-1,2-dimethyl-1,2,3,4-tetrahydroquinoline-6-carboxamide]
- IC50 (Homo sapiens): 345 nM

Compound: Cc1cc(NCCN2CCOCC2)c2cc(C(=O)Nc3cc(NC(=O)c4ccc5c(c4)OCCO5)ccc3C)ccc2n1 [Example 118, N-(5-(2,3-dihydrobenzo[b][1,4]dioxine-6-carboxamido)-2-methylphenyl)-2-methyl-4-(2-morpholinoethylamino)quinoline-6-carboxamide]
- IC50 (Homo sapiens): 618 nM

Compound: Cc1ccc(NC(=O)c2ccc3c(c2)OCCO3)cc1NC(=O)c1ccc(N)nc1 [Example 104, 6-amino-N-(5-(2,3-dihydrobenzo[b][1,4]dioxine-6-carboxamido)-2-methylphenyl)nicotinamide]
- IC50 (Homo sapiens): 482 nM

Compound: Cc1ccc(NC(=O)c2ccc3c(c2)OCCO3)cc1NC(=O)c1cc(N(C)CCN(C)C)c2ncccc2c1 [Example 162, N-(5-(2,3-dihydrobenzo[b][1,4]dioxine-6-carboxamido)-2-methylphenyl)-8-((2-(dimethylamino)ethyl)(methyl)amino)quinoline-6-carboxamide]
- IC50 (Homo sapiens): 984 nM

Compound: Cc1ccc(NC(=O)c2ccc3c(c2)OCCO3)cc1NC(=O)c1ccc2c(c1)CC[C@@H](C)N2 [Example 155, (R)—N-(5-(2,3-dihydrobenzo[b][1,4]dioxine-6-carboxamido)-2-methylphenyl)-2-methyl-1,2,3,4-tetrahydroquinoline-6-carboxamide]
- IC50 (Homo sapiens): 227 nM

Compound: Cc1ccc2cc(C(=O)Nc3cc(NC(=O)c4ccc5c(c4)OCCCO5)ccc3C)ccc2n1 [Example 132, N-(5-(3,4-dihydro-2H-benzo[b][1,4]dioxepine-7-carboxamido)-2-methylphenyl)-2-methylquinoline-6-carboxamide]
- IC50 (Homo sapiens): 226 nM

Compound: CNCC1CCc2cc(C(=O)Nc3cc(NC(=O)c4ccc5c(c4)OCCO5)ccc3C)ccc2N1 (stereo not drawn) [Example 86, N-(5-(2,3-dihydrobenzo[b][1,4]dioxine-6-carboxamido)-2-methylphenyl)-2-((methylamino)methyl)-1,2,3,4-tetrahydroquinoline-6-carboxamide]
- IC50 (Homo sapiens): 195 nM

Compound: CCC(=O)NCCNc1ccc2cc(C(=O)Nc3cc(NC(=O)c4ccc5c(c4)OCCO5)ccc3C)ccc2n1 [Example 83, N-(5-(2,3-dihydrobenzo[b][1,4]dioxine-6-carboxamido)-2-methylphenyl)-2-((2-propionamidoethyl)amino)quinoline-6-carboxamide]
- IC50 (Homo sapiens): 161 nM

Compound: Cc1ccc2cc(C(=O)Nc3cc(NC(=O)c4ccc5c(c4)OCCO5)ccc3C)ccc2c1 [Example 108, N-(4-methyl-3-(6-methyl-2-naphthamido)phenyl)-2,3-dihydrobenzo[b][1,4]dioxine-6-carboxamide]
- IC50 (Homo sapiens): 483 nM

Compound: Cc1ccc(NC(=O)c2ccc3c(c2)OCCO3)cc1NC(=O)c1ccc2c(c1)CCN(C(=O)OC(C)(C)C)C2 [Example 31, tert-butyl 6-((5-(2,3-dihydrobenzo[b][1,4]dioxine-6-carboxamido)-2-methylphenyl)carbamoyl)-3,4-dihydroisoquinoline-2(1H)-carboxylate]
- IC50 (Homo sapiens): 545 nM

Compound: Cc1cc(NCCN2CCCC2)c2cc(C(=O)Nc3cc(NC(=O)c4ccc5c(c4)OCCO5)ccc3C)ccc2n1 [Example 117, N-(5-(2,3-dihydrobenzo[b][1,4]dioxine-6-carboxamido)-2-methylphenyl)-2-methyl-4-(2-(pyrrolidin-1-yl)ethylamino)quinoline-6-carboxamide]
- IC50 (Homo sapiens): 635 nM

Compound: Cc1ccc(NC(=O)c2ccc3c(c2)OCCO3)cc1NC(=O)c1ccc2c(ccc[n+]2[O-])c1 [Example 23, 6-((5-(2,3-dihydrobenzo[b][1,4]dioxine-6-carboxamido)-2-methylphenyl)carbamoyl)quinoline 1-oxide]
- IC50 (Homo sapiens): 161 nM

Compound: Cc1ccc(NC(=O)c2ccc3c(c2)OCCO3)cc1NC(=O)c1ccc2nc(N3CCN(C)CC3)ccc2c1 [Example 74, N-(5-(2,3-dihydrobenzo[b][1,4]dioxine-6-carboxamido)-2-methylphenyl)-2-(4-methylpiperazin-1-yl)quinoline-6-carboxamide]
- IC50 (Homo sapiens): 232 nM

Compound: CCc1ccc2cc(C(=O)Nc3cc(NC(=O)c4ccc5c(c4)OCCO5)ccc3C)ccc2n1 [Example 77, N-(5-(2,3-dihydrobenzo[b][1,4]dioxine-6-carboxamido)-2-methylphenyl)-2-ethylquinoline-6-carboxamide]
- IC50 (Homo sapiens): 26 nM

Compound: Cc1ccc(NC(=O)c2ccc3c(c2)OCCO3)cc1NC(=O)c1ccc2c(c1)CCN2C(=O)OC(C)(C)C [Example 30, tert-butyl 5-((5-(2,3-dihydrobenzo[b][1,4]dioxine-6-carboxamido)-2-methylphenyl)carbamoyl)indoline-1-carboxylate]
- IC50 (Homo sapiens): 507 nM

Compound: Cc1cc(NCCCN(C)C)c2cc(C(=O)Nc3cc(NC(=O)c4ccc5c(c4)OCCO5)ccc3C)ccc2n1 [Example 111, N-(5-(2,3-dihydrobenzo[b][1,4]dioxine-6-carboxamido)-2-methylphenyl)-4-(3-(dimethylamino)propylamino)-2-methylquinoline-6-carboxamide]
- IC50 (Homo sapiens): 1840 nM

Compound: COCCOc1cc(C(=O)Nc2cc(NC(=O)c3ccc4c(c3)OCCO4)ccc2C)cc2cccnc12 [Example 160, N-(5-(2,3-dihydrobenzo[b][1,4]dioxine-6-carboxamido)-2-methylphenyl)-8-(2-methoxyethoxy)quinoline-6-carboxamide]
- IC50 (Homo sapiens): 383 nM

Compound: Cc1ccc(NC(=O)c2ccc3c(c2)OCCO3)cc1NC(=O)c1ccc2c(c1)CCCCN2 [Example 82, N-(5-(2,3-dihydrobenzo[b][1,4]dioxine-6-carboxamido)-2-methylphenyl)-2,3,4,5-tetrahydro-1H-benzo[b]azepine-7-carboxamide]
- IC50 (Homo sapiens): 156 nM

Compound: Cc1ccc(NC(=O)c2ccc3c(c2)OCCO3)cc1NC(=O)c1ccc2nc(N3CCOCC3)ccc2c1 [Example 32, N-(5-(2,3-dihydrobenzo[b][1,4]dioxine-6-carboxamido)-2-methylphenyl)-2-morpholinoquinoline-6-carboxamide]
- IC50 (Homo sapiens): 665 nM

Compound: Cc1ccc2cc(C(=O)Nc3cc(NC(=O)c4cc5c(cc4F)OCCO5)ccc3C)ccc2n1 [Example 130, N-(5-(7-fluoro-2,3-dihydrobenzo[b][1,4]dioxine-6-carboxamido)-2-methylphenyl)-2-methylquinoline-6-carboxamide]
- IC50 (Homo sapiens): 156 nM

Compound: CCC(=O)NCCOc1ccc2cc(C(=O)Nc3cc(NC(=O)c4ccc5c(c4)OCCO5)ccc3C)ccc2n1 [Example 81, N-(5-(2,3-dihydrobenzo[b][1,4]dioxine-6-carboxamido)-2-methylphenyl)-2-(2-propionamidoethoxy)quinoline-6-carboxamide]
- IC50 (Homo sapiens): 100 nM

Compound: COC(C)c1ccc2cc(C(=O)Nc3cc(NC(=O)c4ccc5c(c4)OCCO5)ccc3C)ccc2n1 (stereo not drawn) [Example 153, N-(5-(2,3-dihydrobenzo[b][1,4]dioxine-6-carboxamido)-2-methylphenyl)-2-(1-methoxyethyl)quinoline-6-carboxamide]
- IC50 (Homo sapiens): 140 nM

Compound: Cc1ccc(NC(=O)c2ccc3c(c2)OCCO3)cc1NC(=O)c1ccc2c(c1)CCNC2 [Example 88, N-(5-(2,3-dihydrobenzo[b][1,4]dioxine-6-carboxamido)-2-methylphenyl)-1,2,3,4-tetrahydroisoquinoline-6-carboxamide]
- IC50 (Homo sapiens): 770 nM

Compound: Cc1ccc(NC(=O)c2ccc3c(c2)OCCO3)cc1NC(=O)c1ccc2ccncc2c1 [Example 2, N-(5-(2,3-dihydrobenzo[b][1,4]dioxine-6-carboxamido)-2-methylphenyl)isoquinoline-7-carboxamide]
- IC50 (Homo sapiens): 7 nM

Compound: Cc1ccc(NC(=O)c2ccc3c(c2)OCCO3)cc1NC(=O)c1ccc(Nc2cccc(I)c2)nc1 [Example 38, N-(5-(2,3-dihydrobenzo[b][1,4]dioxine-6-carboxamido)-2-methylphenyl)-6-((3-iodophenyl)amino)nicotinamide]
- IC50 (Homo sapiens): 41 nM

Compound: Cc1ccc(NC(=O)c2ccc3c(c2)OCCO3)cc1NC(=O)c1ccc2c(c1)CCC(CN(C)C(=O)OC(C)(C)C)N2 (stereo not drawn) [Example 85, tert-butyl ((6-((5-(2,3-dihydrobenzo[b][1,4]dioxine-6-carboxamido)-2-methylphenyl)carbamoyl)-1,2,3,4-tetrahydroquinolin-2-yl)methyl)(methyl)carbamate]
- IC50 (Homo sapiens): 1140 nM

Compound: Cc1ccc(NC(=O)c2ccc3c(c2)OCCO3)cc1NC(=O)c1ccc2ncsc2c1 [Example 114, N-(5-(2,3-dihydrobenzo[b][1,4]dioxine-6-carboxamido)-2-methylphenyl)benzo[d]thiazole-6-carboxamide]
- IC50 (Homo sapiens): 35 nM

Compound: Cc1ccc(NC(=O)c2ccc3c(c2)OCCO3)cc1NC(=O)c1ccc(Nc2ccccc2)nc1 [Example 94, N-(5-(2,3-dihydrobenzo[b][1,4]dioxine-6-carboxamido)-2-methylphenyl)-6-(phenylamino)nicotinamide]
- IC50 (Homo sapiens): 73 nM

Compound: N-(5-(2,3-dihydrobenzo[b][1,4]dioxine-6-carboxamido)-2-methyl)phenyl)-2-methyl-4-(2-(pyrrolidin-1-yl)ethoxy)quinoline-6-carboxamide [Example 120]
- IC50: 2730 nM

Compound: Cc1ccc(NC(=O)c2ccc3c(c2)OCCO3)cc1NC(=O)c1ccnc(N2CCOCC2)c1 [Example 98, N-(5-(2,3-dihydrobenzo[b][1,4]dioxine-6-carboxamido)-2-methylphenyl)-2-morpholinoisonicotinamide]
- IC50 (Homo sapiens): 2660 nM
